Experimental data reported in patent publication US10934303B2, “Aryl ethene derivative and pharmaceutical composition containing same as active ingredient” (priority 2016, dated 2021).
Where two headings read alike, the source gives them in different places.

What was measured:
GST-bound ERR alpha LBD = GST-bound ERR alpha LBD (Homo sapiens (Human), UniProt P11474); conditions: TR-FRET, PGC1a coactivator; read-out: Binding Assay, IC50 ERRα
Experimental: (§2) The arylethene derivative of the present invention was sequentially added to a 384 well plate from a concentration of 10 μM to a final concentration of two-fold dilution. […] After all reagents were added, a reaction was carried out with gentle shaking at 20° C. for 1 hour, and after the reaction, a binding activity was measured by a TR-FRET method.

ERRβ = ERRβ (Homo sapiens, UniProt O95718); conditions: TR-FRET, PGC1a coactivator; read-out: Binding Assay, IC50 ERRβ
Experimental: as §2

[1] = target: GST-bound ER alpha ligand-binding domain (LBD) (Homo sapiens (Human), UniProt P03372); experiment: biochemical
Experimental: as §2

ERRγ = type: cell-based
in vitro = in vitro ADME; conditions: PBS pH 7.4, 25° C., 5 hours
CYP1A2 = CYP1A2 (Homo sapiens (Human), UniProt P05177); experiment: Cytochrome P450 activity inhibition, CYP1A2; type: in vitro ADME; conditions: 10 μM, human liver microsomes, Phenacetin substrate
Text: (§1) 1) Cytochrome P450 (CYP450) Activity Inhibition Evaluation

CYP2C9 = CYP2C9 (Homo sapiens (Human), UniProt P11712); experiment: Cytochrome P450 activity inhibition, CYP2C9; type: in vitro ADME; conditions: 10 μM, human liver microsomes, Diclofenac substrate
Text: as §1

CYP2C19 = CYP2C19 (Homo sapiens (Human), UniProt P33261); experiment: Cytochrome P450 activity inhibition, CYP2C19; type: in vitro ADME; conditions: 10 μM, human liver microsomes, S-mephenytoin substrate
Text: as §1

CYP2D6 = CYP2D6 (Homo sapiens (Human), UniProt P10635); experiment: Cytochrome P450 activity inhibition, CYP2D6; type: in vitro ADME; conditions: 10 μM, human liver microsomes, Dextromethorphan substrate
Text: as §1

CYP3A4 = CYP3A4 (Homo sapiens (Human), UniProt P08684); experiment: Cytochrome P450 activity inhibition, CYP3A4; type: in vitro ADME; conditions: 10 μM, human liver microsomes, Midazolam substrate
Text: as §1

in vivo = type: in vivo; conditions: rat; for Cmax: read-out: Cmax
Experimental: An oral administration group fasts the day before.
Blood of each animal is collected at 0 hour.
Into a tail vein of an intravenous administration group (IV), a drug is injected at a dose of 1 mg/kg (syringe).
To an oral administration group (PO), a drug is orally administered at a dose of 10 mg/kg (oral zondec)
After administration, blood of the intravenous administration group was collected through a jugular vein 8 times at 0.08, 0.25, 0.5, 1, 2, 4, 6, and 8 hours. One collected blood amount is 400 to 500 ul.
After administration, blood of the oral administration group was collected through a jugular vein 6 times at 0.25, 0.5, 1, 4, 6 and 8 hours. One collected blood amount is 400 to 500 ul.
Supernatant plasma is collected by a centrifuge.
The supernatant plasma was injected into a LC-MS/MS system and the drug is analyzed.

[2] = 1 μM, 30 minutes, 37° C., NADPH
Experimental: 2) Microsomal Stability Evaluation
(§3) Four liver microsomes (Human, Dog, Rat, Mouse 0.5 mg/ml) with a 0.1 M phosphate buffer solution (pH 7.4), and the arylethene derivative of the present invention were added to a concentration of 1 μM, culturing was performed at 37° C. for 5 minutes in advance, a NADPH regeneration system solution was added thereto, and culturing was performed at 37° C. for 30 minutes. Thereafter, in order to complete the reaction, an acetonitrile solution containing an internal standard material (chlorpropamide) was added thereto, centrifugation (14,000 rpm, 4° C.) was performed for 5 minutes, and a supernatant was injected into a LC-MS/MS system to analyze the substrate drug, thereby evaluating metabolism stability to the arylethene derivative of the present invention.

[3] = 1 μM, 30 minutes, 37° C., NADPH; remark: listed apart in the source
Experimental: 2) Microsomal Stability Evaluation
as §3

[4] = 1 μM, 30 minutes, 37° C., NADPH; remark: listed apart in the source
[5] = 1 μM, 30 minutes, 37° C., NADPH; remark: listed apart in the source
Experimental: 2) Microsomal Stability Evaluation
as §3

hERG channel = hERG channel (Homo sapiens (Human), UniProt Q12809); conditions: read-out: hERG IC50; fluorescence polarization assay
[6] = target: GST-bound ERR gamma ligand-binding domain (LBD) (Homo sapiens (Human), UniProt P62508); experiment: ERRγ binding assay (inverse agonist assay), TR-FRET; conditions: TR-FRET, PGC1a coactivator; read-out: Binding Assay, IC50 ERRγ
Experimental: 1) ERRγ Binding Assay (Inverse Agonist Assay)
as §2

[7] = TR-FRET, beta-estradiol 4 nM as agonist, read-out: Binding Assay, IC50 ERα
[8] = activity relative to reference compound GSK5182, 10 μM

Sequence of CYP2D6 (P10635 whole entry): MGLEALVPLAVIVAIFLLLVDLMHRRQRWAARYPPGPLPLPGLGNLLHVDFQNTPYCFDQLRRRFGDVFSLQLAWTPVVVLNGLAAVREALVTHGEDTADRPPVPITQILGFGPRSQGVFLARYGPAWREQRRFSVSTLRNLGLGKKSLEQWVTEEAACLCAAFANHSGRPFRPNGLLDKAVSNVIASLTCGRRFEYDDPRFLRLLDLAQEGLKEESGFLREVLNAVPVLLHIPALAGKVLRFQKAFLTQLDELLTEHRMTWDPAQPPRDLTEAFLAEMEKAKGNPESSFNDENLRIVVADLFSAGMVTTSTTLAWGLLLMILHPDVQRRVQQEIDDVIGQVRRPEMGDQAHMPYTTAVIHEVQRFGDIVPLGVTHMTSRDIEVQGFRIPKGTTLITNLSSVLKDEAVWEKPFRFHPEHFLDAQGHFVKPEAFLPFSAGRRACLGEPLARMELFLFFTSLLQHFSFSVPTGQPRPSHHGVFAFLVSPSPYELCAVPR
Sequence of CYP3A4 (P08684 whole entry): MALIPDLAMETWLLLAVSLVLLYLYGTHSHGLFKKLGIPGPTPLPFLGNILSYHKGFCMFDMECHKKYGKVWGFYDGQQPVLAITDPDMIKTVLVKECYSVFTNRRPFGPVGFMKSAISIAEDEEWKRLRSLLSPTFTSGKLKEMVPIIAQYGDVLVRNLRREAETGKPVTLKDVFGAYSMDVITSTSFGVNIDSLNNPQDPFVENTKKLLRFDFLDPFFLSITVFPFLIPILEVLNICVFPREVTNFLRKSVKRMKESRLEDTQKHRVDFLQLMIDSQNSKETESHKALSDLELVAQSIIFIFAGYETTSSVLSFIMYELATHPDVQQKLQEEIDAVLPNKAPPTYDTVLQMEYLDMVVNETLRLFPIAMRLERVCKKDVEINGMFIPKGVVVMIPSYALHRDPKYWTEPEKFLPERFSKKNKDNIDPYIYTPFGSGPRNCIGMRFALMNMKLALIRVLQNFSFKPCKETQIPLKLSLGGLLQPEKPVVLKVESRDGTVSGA
Sequence of ERRβ (O95718 whole entry, looked up, the tested form may be a part): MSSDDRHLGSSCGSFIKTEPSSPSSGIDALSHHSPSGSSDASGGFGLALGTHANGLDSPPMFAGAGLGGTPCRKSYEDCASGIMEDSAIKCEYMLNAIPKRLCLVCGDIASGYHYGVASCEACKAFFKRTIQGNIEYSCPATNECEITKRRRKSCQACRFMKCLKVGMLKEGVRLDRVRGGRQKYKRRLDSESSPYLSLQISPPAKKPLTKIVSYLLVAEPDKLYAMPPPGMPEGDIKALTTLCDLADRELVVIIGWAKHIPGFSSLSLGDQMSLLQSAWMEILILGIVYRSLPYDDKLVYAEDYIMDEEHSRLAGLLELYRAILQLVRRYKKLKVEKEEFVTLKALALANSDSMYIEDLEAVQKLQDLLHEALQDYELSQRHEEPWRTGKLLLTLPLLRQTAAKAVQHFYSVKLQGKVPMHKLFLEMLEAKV
Sequence of CYP2C9 (P11712 whole entry): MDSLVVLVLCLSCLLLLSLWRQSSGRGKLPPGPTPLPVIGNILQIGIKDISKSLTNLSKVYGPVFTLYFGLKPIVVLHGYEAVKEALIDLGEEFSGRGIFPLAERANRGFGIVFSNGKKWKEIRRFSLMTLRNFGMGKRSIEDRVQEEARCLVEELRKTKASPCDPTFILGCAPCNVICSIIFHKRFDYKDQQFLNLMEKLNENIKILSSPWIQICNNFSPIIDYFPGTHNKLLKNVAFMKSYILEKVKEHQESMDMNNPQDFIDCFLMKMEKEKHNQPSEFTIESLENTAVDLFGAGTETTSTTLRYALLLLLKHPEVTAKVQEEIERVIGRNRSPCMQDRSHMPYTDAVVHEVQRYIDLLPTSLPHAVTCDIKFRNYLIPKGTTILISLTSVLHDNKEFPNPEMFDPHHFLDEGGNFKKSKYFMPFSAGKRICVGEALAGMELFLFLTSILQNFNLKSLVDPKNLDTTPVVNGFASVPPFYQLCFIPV
Sequence of GST-bound ERR alpha LBD (P11474 193-421): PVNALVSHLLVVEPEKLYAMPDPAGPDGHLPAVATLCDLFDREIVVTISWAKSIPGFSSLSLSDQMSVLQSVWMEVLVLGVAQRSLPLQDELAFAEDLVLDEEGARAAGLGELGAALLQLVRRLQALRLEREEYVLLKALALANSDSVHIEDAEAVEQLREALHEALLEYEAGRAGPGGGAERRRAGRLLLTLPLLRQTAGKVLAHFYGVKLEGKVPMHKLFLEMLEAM
Sequence of CYP2C19 (P33261 whole entry): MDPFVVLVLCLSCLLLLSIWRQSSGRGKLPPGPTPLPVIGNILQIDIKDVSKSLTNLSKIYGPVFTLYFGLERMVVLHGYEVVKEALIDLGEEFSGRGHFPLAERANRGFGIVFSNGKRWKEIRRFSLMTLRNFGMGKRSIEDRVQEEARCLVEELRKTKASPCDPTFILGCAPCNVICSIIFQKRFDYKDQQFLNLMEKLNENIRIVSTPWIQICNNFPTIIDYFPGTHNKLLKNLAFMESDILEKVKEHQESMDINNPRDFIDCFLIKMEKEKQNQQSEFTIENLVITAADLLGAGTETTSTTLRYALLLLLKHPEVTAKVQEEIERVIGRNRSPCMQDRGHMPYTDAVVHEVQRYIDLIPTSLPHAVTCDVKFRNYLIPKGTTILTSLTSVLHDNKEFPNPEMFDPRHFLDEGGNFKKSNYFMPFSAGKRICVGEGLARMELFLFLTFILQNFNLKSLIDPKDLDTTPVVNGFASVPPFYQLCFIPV
Sequence of CYP1A2 (P05177 whole entry): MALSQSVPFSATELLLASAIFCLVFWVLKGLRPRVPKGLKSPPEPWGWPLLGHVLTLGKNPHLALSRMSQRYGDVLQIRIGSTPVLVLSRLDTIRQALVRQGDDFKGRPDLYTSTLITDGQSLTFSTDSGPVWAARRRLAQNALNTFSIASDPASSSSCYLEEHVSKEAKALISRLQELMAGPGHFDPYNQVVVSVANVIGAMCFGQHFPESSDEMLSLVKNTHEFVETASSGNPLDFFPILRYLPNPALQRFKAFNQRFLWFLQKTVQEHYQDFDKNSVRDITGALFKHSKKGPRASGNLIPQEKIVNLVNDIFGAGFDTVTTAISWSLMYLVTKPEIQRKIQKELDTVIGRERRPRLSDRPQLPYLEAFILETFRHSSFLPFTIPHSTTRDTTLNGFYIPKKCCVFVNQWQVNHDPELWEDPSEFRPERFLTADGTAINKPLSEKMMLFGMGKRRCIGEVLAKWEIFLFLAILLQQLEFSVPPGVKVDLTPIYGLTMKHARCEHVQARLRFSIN
Sequence of GST-bound ER alpha ligand-binding domain (LBD) (P03372 whole entry, looked up, the tested form may be a part): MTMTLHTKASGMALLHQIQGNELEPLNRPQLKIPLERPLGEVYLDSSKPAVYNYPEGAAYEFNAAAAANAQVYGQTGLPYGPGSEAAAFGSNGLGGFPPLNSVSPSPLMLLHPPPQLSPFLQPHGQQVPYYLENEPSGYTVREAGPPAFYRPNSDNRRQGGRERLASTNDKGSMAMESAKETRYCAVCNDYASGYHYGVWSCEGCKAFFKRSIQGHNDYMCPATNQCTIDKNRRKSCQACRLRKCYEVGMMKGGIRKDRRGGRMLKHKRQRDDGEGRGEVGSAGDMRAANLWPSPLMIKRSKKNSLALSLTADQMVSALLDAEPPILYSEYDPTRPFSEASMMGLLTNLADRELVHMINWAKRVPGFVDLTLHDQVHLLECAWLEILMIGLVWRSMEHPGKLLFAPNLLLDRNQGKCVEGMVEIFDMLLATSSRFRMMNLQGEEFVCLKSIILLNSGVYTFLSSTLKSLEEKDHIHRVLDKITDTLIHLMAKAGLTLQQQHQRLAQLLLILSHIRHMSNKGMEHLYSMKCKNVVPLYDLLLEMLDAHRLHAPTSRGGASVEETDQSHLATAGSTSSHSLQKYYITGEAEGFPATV
Sequence of GST-bound ERR gamma ligand-binding domain (LBD) (P62508 233-457): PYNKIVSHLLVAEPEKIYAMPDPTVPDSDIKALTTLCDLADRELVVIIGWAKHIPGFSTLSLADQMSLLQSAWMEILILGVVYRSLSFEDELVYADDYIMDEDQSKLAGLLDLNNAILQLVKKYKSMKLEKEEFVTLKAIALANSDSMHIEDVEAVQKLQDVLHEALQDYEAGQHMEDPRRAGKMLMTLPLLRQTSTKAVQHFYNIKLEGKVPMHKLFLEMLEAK

SMILES | IC50 (GST-bound ERR alpha LBD) [µM] | IC50 [1, 7] [µM] | Functional Assay at 10 μM (% of control), Cpds (ERRγ; 10 μM, 24 hours, AD293) | Functional Assay, Cpds/Ref 5182 (ERRγ; [8]) | Permeability Pampa (in vitro) | CYP inhibition (% of control) 1A2 (CYP1A2) | CYP inhibition (% of control) 2C9 (CYP2C9) | CYP inhibition (% of control) 2C19 (CYP2C19) | CYP inhibition (% of control) 2D6 (CYP2D6) | CYP inhibition (% of control) 3A4 (CYP3A4) | MS(Microsomal Stability) (%) human [2] [%] | MS(Microsomal Stability) (%) dog [3] [%] | MS(Microsomal Stability) (%) rat [4] [%] | MS(Microsomal Stability) (%) mouse [5] [%] | IC50 (hERG channel) [µM] | other results
CC(C)(C)OC(=O)N1CCN(c2ccc(/C(=C(/CCCO)c3ccccc3)c3ccc(Br)cc3)cc2)CC1 [Compound 18n] | 8.25 | 8.8 | 3.36 % of control | 0.82 | 0.63 10^−6 cm/s |  |  |  |  |  |  |  |  |  |  | IC50 (ERRβ): 1090 nM
OCCC/C(=C(/c1ccc(C2CCN(C3CC3)CC2)cc1)c1cccc(O)c1)c1ccccc1 [Compound 22r] |  |  |  |  |  | >100 % of control | >100 % of control | >100 % of control | 91.8 % of control | 82.7 % of control | 62.0 | 56.9 | 49.9 | 24.5 | 16.4 | AUCINF (in vivo; IV, 1 mg/kg): 0.87 μMh; AUCall (in vivo; IV, 1 mg/kg): 0.85 μMh; Vss (in vivo; IV, 1 mg/kg): 4.6 L/kg; t1/2 (in vivo; IV, 1 mg/kg): 1.8 h; AUCINF (in vivo; PO, 10 mg/kg): 5.29 μMh; AUCall (in vivo; PO, 10 mg/kg): 4.93 μMh; BA (in vivo; PO, 10 mg/kg): 58.2%; Tmax (in vivo; PO, 10 mg/kg): 1 h; t1/2 (in vivo; PO, 10 mg/kg): 2.3 h; Cmax (in vivo; PO, 10 mg/kg): 1510 nM
OCCC/C(=C(\c1ccc(O)cc1)c1ccc(C2CCN(C3CC3)C2)cc1)c1ccccc1 (stereo not drawn) [Compound 22t] | > 10 | 5.94 | 6.19 % of control |  |  |  |  |  |  |  |  |  |  |  |  | IC50 (ERRβ): 3560 nM
CN1CCN(c2ccc(/C(=C(/CCCO)c3ccccc3)c3ccc([N+](=O)[O-])cc3)cc2)CC1 [Compound 18c] |  |  | 1.31 % of control | 0.42 | 5.73 10^−6 cm/s | 92.2 % of control | 81.7 % of control | 80 % of control | 75.6 % of control | 64.1 % of control | 96.9 |  | 72.8 |  | 11.6 | 
CC(C)N1CCC(c2ccc(/C(=C(/CCCO)c3ccccc3)c3ccc(O)cc3)cc2)CC1 [Compound 22g] | > 10 | 4.37 |  |  |  |  |  |  |  |  | 42.8 | 54.3 | 43.2 | 10.7 | 22 | 
CC(C)N1CCN(c2ccc(/C(=C(/CCCO)c3ccccc3)c3ccc([N+](=O)[O-])cc3)cc2)CC1 [Compound 18g] |  |  | 1.62 % of control | 0.84 | 4.8 10^−6 cm/s |  |  |  |  |  | 87.9 | 84.9 | 85.3 | 84.1 | 17.9 | 
Cc1ccc(/C(=C(\CCCO)c2ccccc2)c2ccc(N3CCN(C)CC3)cc2)cc1 [Compound 18f] | > 10 | > 10 | 2.57 % of control | 0.82 | 4.84 10^−6 cm/s | >100 % of control | 62.3 % of control | 72.8 % of control | 68.2 % of control | 70.9 % of control | 79.2 |  | 65.7 | 47.6 | 18.9 | AUCINF (in vivo; IV, 1 mg/kg): 0.29 μMh; AUCall (in vivo; IV, 1 mg/kg): 0.28 μMh; Vss (in vivo; IV, 1 mg/kg): 30.3 L/kg; t1/2 (in vivo; IV, 1 mg/kg): 2.5 h; AUCINF (in vivo; PO, 10 mg/kg): 7.00 μMh; AUCall (in vivo; PO, 10 mg/kg): 2.93 μMh; BA (in vivo; PO, 10 mg/kg): 41.2%; Tmax (in vivo; PO, 10 mg/kg): 2.4 h; Cmax (in vivo; PO, 10 mg/kg): 450 nM
Cc1ccc(/C(=C(\CCCO)c2ccccc2)c2ccc(N3CCN(C(C)C)CC3)cc2)cc1 [Compound 18b] | > 10 | > 10 | 2.45 % of control | 0.78 | 2.09 10^−6 cm/s | 89.8 % of control | 73.4 % of control | 69.7 % of control | 68.9 % of control | 53 % of control | 54.2 |  | 40.0 | 19.7 | > 30 | AUCINF (in vivo; IV, 1 mg/kg): 0.64 μMh; AUCall (in vivo; IV, 1 mg/kg): 0.58 μMh; Vss (in vivo; IV, 1 mg/kg): 9.8 L/kg; t1/2 (in vivo; IV, 1 mg/kg): 3.1 h; AUCINF (in vivo; PO, 10 mg/kg): 0.36 μMh; AUCall (in vivo; PO, 10 mg/kg): 0.31 μMh; BA (in vivo; PO, 10 mg/kg): 8.7%; Tmax (in vivo; PO, 10 mg/kg): 0.6 h; Cmax (in vivo; PO, 10 mg/kg): 120 nM
Cc1ccc(/C(=C(\CCCO)c2ccccc2)c2ccc(N3CCNCC3)cc2)cc1 [Compound 20b] | > 10 | > 10 | 3.58 % of control | 0.88 | 3.61 10^−6 cm/s |  |  |  |  |  | 44 | 58 | 71.5 | 28.8 |  | IC50 (ERRβ): 2100 nM
CN1CCCC1CCOc1ccc(/C(=C(/CCCO)c2ccccc2)c2ccc(O)cc2)cc1 (stereo not drawn) [Compound 6g] | > 10 | 0.331 | 4.94 % of control | 1.60 |  |  |  |  |  |  |  |  |  |  | 5.4 | IC50 [6]: 30 nM
CN1CCN(c2ccc(/C(=C(/CCCO)c3ccccc3)c3ccc(O)cc3)cc2)CC1 [Compound 18d] | > 10 | 1.7 | 9.65 % of control | 0.97 | 0.14 10^−6 cm/s | 88 % of control | 67.7 % of control | 81.2 % of control | 98.4 % of control | 64 % of control |  |  |  |  | > 20 | 
OCCC/C(=C(\c1ccc(O)cc1)c1ccc(C2=CCN(C3CC3)CC2)cc1)c1ccccc1 [Compound 22j] |  |  |  |  |  | 95.7 % of control | 88 % of control | 89.6 % of control | 97.1 % of control | 85 % of control | 65.2 | 54.9 | 65.5 | 34.9 | 8.8 | 
OCCC/C(=C(\c1ccc(O)cc1)c1ccc(N2CCN(C3CCCC3)CC2)cc1)c1ccccc1 [Compound 22n] |  |  | 3.47 % of control | 1.28 |  | 99 % of control | 97.4 % of control | 83 % of control | 82.6 % of control | 88.3 % of control | 56.3 | 72.0 | 47.8 | 37.8 | 14.6 | 
CN1CCC[C@H]1COc1ccc(/C(=C(/CCCO)c2ccccc2)c2ccc(O)cc2)cc1 [Compound 6h] |  |  |  |  |  |  |  |  |  |  |  |  |  |  | 18 | IC50 [1]: 1.1 µM; Functional Assay at 10 μM (% of control), Cpds (ERRγ): 5.49 % of control; Functional Assay, Cpds/Ref 5182 (ERRγ): 1.78
CCN1CCN(c2ccc(/C(=C(/CCCO)c3ccccc3)c3ccc(O)cc3)cc2)CC1 [Compound 18i] | > 10 | 1.14 | 1.88 % of control | 0.97 | 1.16 10^−6 cm/s |  |  |  |  |  |  |  |  |  | > 30 | IC50 [6]: 50 nM
